Laboratory results as given in patent US9932572B2, “Modified Caspase polypeptides and uses thereof” (BELLICUM PHARMACEUTICALS, INC., priority 2013, dated 2018).
Substitutions are numbered along the chain they refer to. Names may count otherwise. Where two headings read alike, the source gives them in different places.

What was measured:
[1] = cited from earlier work
[2] = biological target: chimeric Caspase-9 polypeptide (Homo sapiens, UniProt P62942, F37V); conditions: cited from earlier work
[3] = tested on: CD3+ΔCD19+ cells; assay: CASPALLO phase 1 clinical trial, AP1903 in patients with GvHD after iCasp9+ T cells; assay type: in vivo, human; conditions: after AP1903 administration
Excerpt: Three patients received iCasp9+ T cells after haplo-CD34^+ stem cell transplantation (SCT), at dose levels between about 1×10^6 to about 3×10^6 cells/kg.

[4] = tested on: non-transduced cells; assay: Viability of non-transduced cells with AP20187; assay type: cell-based, human; conditions: non-transduced cells (n=6)
Experimental: (§1) Suicide gene functionality was assessed by adding a small molecule synthetic homodimerizer, AP20187 (Ariad Pharmaceuticals; Cambridge, Mass.), at 10 nM final concentration the day following CD19 immunomagnetic selection. Cells were stained with annexin V and 7-amino-actinomycin (7-AAD)(BD Pharmingen) at 24 hours and analyzed by flow cytometry. Cells negative for both Annexin V and 7-AAD were considered viable, cells that were annexin V positive were apoptotic, and cells that were both annexin V and 7-AAD positive were necrotic. The percentage killing induced by dimerization was corrected for baseline viability as follows: Percentage killing=100%−(% Viability in AP20187-treated cells÷% Viability in non-treated cells).

[5] = tested on: iCasp9M.IRES.GFPhigh-transduced CTLs; assay: SCID mouse-human xenograft model, human CD3+/GFP+ T cells in tumors; assay type: in vivo, NOD/SCID mice; conditions: single dose of CID (50 μg AP20187 i.p.) vs carrier; tumors 3 days after
Experimental: Non-obese diabetic severe combined immunodeficient (NOD/SCID) mice, 6 to 8 weeks of age, were irradiated (250 rad) and injected subcutaneously in the right flank with 10×10^6 to 15×10^6 LCLs resuspended in Matrigel (BD Bioscience). Two weeks later mice bearing tumors that were approximately 0.5 cm in diameter were injected into the tail vein with a 1:1 mixture of nontransduced and iCasp9.I.GFPhigh-transduced EBV CTLs (total 15×10^6). At 4 to 6 hours prior and 3 days after CTL infusion, mice were injected intraperitoneally with recombinant hIL-2 (2000 U; Proleukin; Chiron). On day 4, the mice were randomly segregated in 2 groups: 1 group received CID (50 μg AP20187, intraperitoneally) and 1 group received carrier only (16.7% propanediol, 22.5% PEG400, and 1.25% Tween 80, intraperitoneally). […] By FACS analysis, the number of GFP+ cells within the gated CD3^+ population was evaluated. […]
The function of iCasp9M in vivo, is graphically illustrated in FIG. 7. […] On day 3 after CTL administration, mice received either CID (50 μg AP20187; (black diamonds, n=6) or carrier only (black squares, n=5) and on day 6 the presence of human CD3+/GFP+ T cells in the tumors was analyzed. Human CD3+ T cells isolated from the tumors of a control group of mice that received only nontransduced CTLs (15×10^6 CTLs; n=4) were used as a negative control for the analysis of CD3+/GFP+ T cells within the tumors.

[6] = tested on: iCasp9-ΔCD19-transduced MSCs; assay: In vivo killing of MSCs in SCID mouse model (qPCR); parameters: species or system SCID mice
[7] = tested on: iCasp9-transduced MSCs; assay: Apoptosis studies in vitro, undifferentiated MSCs (annexin V-PE/7-AAD); assay type: cell-based, human; conditions: magnetically immunoselected iCasp9-CD19-positive cells after exposure to CID
Experimental: Undifferentiated MSCs. The chemical inducer of dimerization (CID) (AP20187; ARIAD Pharmaceuticals, Cambridge, Mass.) was added at 50 nM to iCasp9-transduced MSCs cultures in complete medium. Apoptosis was evaluated 24 hours later by FACS analysis, after cell harvest and staining with annexin V-PE and 7-AAD in annexin V binding buffer (BD Biosciences, San Diego, Calif.). Control iCasp9-transduced MSCs were maintained in culture without exposure to CID.

[8] = tested on: gene-modified allodepleted cells; assay: Induction of apoptosis with AP20187 in gene-modified allodepleted cells (annexin V/7-AAD); assay type: cell-based, human
Experimental: as §1
Cells were maintained in T cell medium containing 50 U/ml IL-2 until 22 days after transduction. A portion of cells was reactivated on 24-well plates coated with […] OKT3 and 1 μg/ml anti-CD28 (Clone CD28.2, BD Pharmingen, San Jose, Calif.) for 48 to 72 hours. CD19 expression and suicide gene function in both reactivated and non-reactivated cells were measured on day 24 or 25 post transduction.

[9] = tested on: HEK293T/16 cells; assay: Secreted alkaline phosphatase (SEAP) reporter-based surrogate killing assay; assay type: cell-based, human; conditions: for relative SEAP activity Units (basal activity): no AP1903, higher SEAP = lower basal activity; for basal signaling: compared to iCasp9 WT; for cost of higher IC50 to AP1903: versus unmodified iCasp9
Experimental: FIG. 45 provides an analysis of SEAP assays. To examine both basal signaling and AP1903-induced activity, 10^6 early-passage HEK293T/16 cells were co-transfected with various amounts of plasmids expressing Caspase-9 mutants along with 500 ng of SEAP reporter plasmid, used as a surrogate marker for cell viability. […] of the mixture was seeded onto each well of a 96-well plate. […] For the assay, 4-MUP was hydrolyzed by SEAP to 4-methylumbelliferon, a metabolite that can be excited at 364 nm and detected at an emission of 448 nm. Because SEAP is used as a marker for cell viability, reduced SEAP readings correspond with increased iCaspase-9 activities.
Early passage HEK293T/16 (ATCC, Manassas, Va.) was maintained in IMDM, GlutaMAX™ (Life Technologies, Carlsbad, Calif.) supplemented with 10% FBS, 100 U/mL penicillin, and 100 U/mL streptomycin until transfection in a humidified, 37° C., 5% CO2/95% air atmosphere. Cells in logarithmic-phase growth were transiently transfected with 800 ng to 2 μg of expression plasmid encoding iCasp9 mutants and 500 ng of an expression plasmid encoding SRα promoter driven SEAP per million cells in 15-mL conical tubes. […] GeneJammer® Transfection Reagent at a ratio of 3 μl per ug of plasmid DNA was used to transiently transfect HEK293T/16 in the absence of antibiotics. 100 μl or 2 mL of the transfection mixture was added to each well in 96-well or 6-well plate, respectively.
Briefly, after 65° C. heat denaturation for 45 minutes to reduce background caused by endogenous (and serum-derived) alkaline phosphatases that are sensitive to heat, 5 μl of supernatants was added to 95 μl of PBS and added to 100 μl of substrate buffer, containing 1 μl of 100 mM 4-methylumbelliferyl phosphate (4-MUP; Sigma, St. Louis, Mo.) re-suspended in 2 M diethanolamine. Hydrolysis of 4-MUP by SEAP produces a fluorescent […] with excitation/emission (355/460 nm), which can be easily measured. Assays were performed in black opaque 96-well plates to minimize fluorescence leakage between wells (FIG. 45).

[10] = 10 nM, 24 hours, day after immunomagnetic selection

Chain of chimeric Caspase-9 polypeptide (P62942 2-108 F37V limits assumed): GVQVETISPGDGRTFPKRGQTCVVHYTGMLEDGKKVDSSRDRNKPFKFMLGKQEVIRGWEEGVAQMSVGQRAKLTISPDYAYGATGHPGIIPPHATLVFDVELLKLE

CC[C@H](C(=O)N1CCCC[C@H]1C(=O)O[C@H](CCc1ccc(OC)c(OC)c1)c1cccc(OCC(=O)NCCNC(=O)COc2cccc([C@@H](CCc3ccc(OC)c(OC)c3)OC(=O)[C@@H]3CCCCN3C(=O)[C@@H](CC)c3cc(OC)c(OC)c(OC)c3)c2)c1)c1cc(OC)c(OC)c(OC)c1 (relative stereo) [AP1903, 2-Piperidinecarboxylic acid, 1-[(2S)-1-oxo-2-(3,4,5-trimethoxyphenyl)butyl]-, 1,2-ethanediylbis[imino(2-oxo-2,1-ethanediyl)oxy-3,1-phenylene[(1R)-3-(3,4-dimethoxyphenyl)propylidene]] ester, [2S-[1(R*),2R*[S*[S*[1(R*),2R*]]]]]-(9CI)]
safety / adverse effects in Phase I study ([1]; 0.01 mg/kg to 1.0 mg/kg dose range, healthy volunteers, listed as API903): No serious adverse events
plasma levels, % of maximal concentration ([1]; 2 hours post-dose): ~7%
plasma levels, % of maximal concentration ([1]; 10 hours post-dose): ~1%
Doses well-tolerated ([1]; Phase I study): up to 1 mg/kg
amount of AP1903 needed in vitro for effective signaling of cells [2]: 10 to 100 nM
resolution of skin and liver aGvHD [3]: ≤ 24 h

CC[C@H](C(=O)N1CCCC[C@H]1C(=O)O[C@H](CCc1ccc(OC)c(OC)c1)c1cccc(OCC(=O)NCC(CNC(=O)COc2cccc([C@@H](CCc3ccc(OC)c(OC)c3)OC(=O)[C@@H]3CCCCN3C(=O)[C@@H](CC)c3cc(OC)c(OC)c(OC)c3)c2)CN(C)C)c1)c1cc(OC)c(OC)c(OC)c1 [AP20187]
viability with AP20187 [4]: about 86%
reduction in the number of human CD3+/GFP+ T cells [5]: > 99%
proportion of surviving iCasp9-positive cells, % of the original population [6]: 0.7%
selected cells become apoptotic [7]: More than 95%
AP20187-treated cells remained viable [8, 10]: about 5.5%
Killing efficiency after correction for baseline viability [8, 10]: about 92.9%
killing efficiency ([8]; reactivated, CD25 positive cells): about 93%

B1: N405Q: chimeric modified Caspase-9 polypeptide, SEQ ID NO: 26 (protein)
chain: GFGDVGALESLRGNADLAYILSMEPCGHCLIINNVNFCRESGLRTRTGSNIDCEKLRRRFSSLHFMVEVKGDLTAKKMVLALLELARQDHGALDCCVVVILSHGCQASHLQFPGAVYGTDGCPVSVEKIVNIFNGTSCPSLGGKPKLFFIQACGGEQKDHGFEVASTSPEDESPGSNPEPDATPFQEGLRTFDQLDAISSLPTPSDIFVSYSTFPGFVSWRDPKSGSWYVETLDDIFEQWAHSEDLQSLLLRVANAVSVKGIYKQMPGCFQFLRKKLFFKTS
relative SEAP activity Units (basal activity) ([9]; 1 μg iCasp9 per million cells): 179081 relative SEAP activity Units
relative SEAP activity Units (basal activity) ([9]; 2 μg iCasp9 per million cells): 175529 relative SEAP activity Units
basal signaling [9]: lower basal signaling
cost of higher IC50 to AP1903 [9]: < 10 fold

B2: D330A-N405Q: chimeric modified Caspase-9 polypeptide, double mutant, SEQ ID NO: 28 (protein)
chain: B1 chain with D196A
relative SEAP activity Units (basal activity) ([9]; 1 μg iCasp9 per million cells): 205772 relative SEAP activity Units
relative SEAP activity Units (basal activity) ([9]; 2 μg iCasp9 per million cells): 174366 relative SEAP activity Units
basal signaling [9]: lower basal signaling

B3: D330A: chimeric modified Caspase-9 polypeptide, SEQ ID NO: 24 (protein)
chain: B1 chain with D196A, Q271N
relative SEAP activity Units (basal activity) ([9]; 1 μg iCasp9 per million cells): 148928 relative SEAP activity Units
relative SEAP activity Units (basal activity) ([9]; 2 μg iCasp9 per million cells): 136863 relative SEAP activity Units
basal signaling [9]: lower basal signaling
cost of higher IC50 to AP1903 [9]: < 5 fold
